According to patent US20240018122A1, “PYRIDAZINYL AMINO DERIVATIVES AS ALK5 INHIBITORS” (CHIESI FARMACEUTICI S.P.A., priority 2020, published 2024):
Like-named read-outs stand apart in the source and are kept apart here.

Target: human ALK5 (Homo sapiens (Human), UniProt P36897)
Test: ADP-GLO Kinases assay, inhibitory activity on ALK5
Format: biochemical
[1] = purified recombinant human ALK5 2.6 nM, TGFβ1 peptide substrate, 25° C, 150 min incubation, ADP-Glo detection, read-out: ALK5 IC50

Chain of human ALK5 (P36897 80-503 limits assumed): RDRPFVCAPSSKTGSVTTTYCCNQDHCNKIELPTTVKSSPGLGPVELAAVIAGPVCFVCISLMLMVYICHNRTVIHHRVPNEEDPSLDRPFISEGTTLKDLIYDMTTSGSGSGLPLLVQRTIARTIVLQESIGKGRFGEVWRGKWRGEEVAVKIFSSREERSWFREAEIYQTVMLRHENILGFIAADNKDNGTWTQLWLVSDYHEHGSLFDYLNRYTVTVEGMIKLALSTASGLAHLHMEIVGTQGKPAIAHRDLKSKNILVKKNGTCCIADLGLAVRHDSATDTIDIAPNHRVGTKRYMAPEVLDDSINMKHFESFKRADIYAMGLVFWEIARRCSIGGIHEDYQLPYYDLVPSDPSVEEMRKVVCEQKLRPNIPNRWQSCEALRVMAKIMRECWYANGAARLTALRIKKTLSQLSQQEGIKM

Row | IC50 [1] | SMILES | IC50
1 | < 1 nM | Cc1nnc(-c2cc(Cl)ccc2F)cc1Nc1ccnc(NC(=O)CCN2CCC(F)(F)CC2)c1 [Example 139, N-(4-{[6-(5-Chloro-2-Fluorophenyl)-3-Methylpyridazin-4-Yl]Amino}Pyridin-2-Yl)-3-(4,4-Difluoropiperidin-1-Yl)Propanamide] | 
2 | < 1 nM | Cc1nnc(-c2cc(Cl)ccc2F)cc1Nc1ccnc(NC(=O)CCN2CCC(O)CC2)c1 [Example 140, N-(4-{[6-(5-Chloro-2-Fluorophenyl)-3-Methylpyridazin-4-Yl]Amino}Pyridin-2-Yl)-3-(4-Hydroxypiperidin-1-Yl)Propanamide] | 
3 | < 1 nM | Cc1nnc(-c2cc(Cl)ccc2F)cc1Nc1ccnc(NC(=O)NCCN2CCN(C)CC2)c1 [Example 141, 1-(4-{[6-(5-Chloro-2-Fluorophenyl)-3-Methylpyridazin-4-Yl]Amino}Pyridin-2-Yl)-3-[2-(4-Methylpiperazin-1-Yl)Ethyl]Urea] | 
4 | < 1 nM | Cc1nnc(-c2cc(Cl)ccc2F)cc1Nc1ccnc(NC(=O)CN2CC3(CN(C)C3)C2)c1 [Example 143, N-(4-{[6-(5-Chloro-2-Fluorophenyl)-3-Methylpyridazin-4-Yl]Amino}Pyridin-2-Yl)-2-{6-Methyl-2,6-Diazaspiro[3.3]Heptan-2-Yl}Acetamide] | 
5 | < 1 nM | Cc1nnc(-c2cc(Cl)ccc2F)cc1Nc1ccnc(NC(=O)CN2CCN(C)C3(CC3)C2)c1 [Example 144, N-(4-{[6-(5-Chloro-2-Fluorophenyl)-3-Methylpyridazin-4-Yl]Amino}Pyridin-2-Yl)-2-{4-Methyl-4,7-Diazaspiro[2.5]Octan-7-Yl}Acetamide] | 
6 | < 1 nM | Cc1nnc(-c2cc(Cl)ccc2F)cc1Nc1ccnc(NC(=O)CCN2CCN(C)C(C)C2)c1 (stereo not shown) [Example 145, N-(4-{[6-(5-Chloro-2-Fluorophenyl)-3-Methylpyridazin-4-Yl]Amino}Pyridin-2-Yl)-3-(3,4-Dimethylpiperazin-1-Yl)Propanamide] | 
7 | < 1 nM | Cc1nnc(-c2cc(Cl)ccc2F)cc1Nc1ccnc(NC(=O)CCN2CCOC3(CN(C)C3)C2)c1 [Example 147, N-(4-{[6-(5-chloro-2-fluorophenyl)-3-methylpyridazin-4-yl]amino}pyridin-2-yl)-3-{2-methyl-5-oxa-2,8-diazaspiro[3.5]nonan-8-yl}propanamide] | 
8 | < 1 nM | CN1CCN(CCOc2cc3nccc(Nc4cnnc(-c5cc(Cl)ccc5F)c4)c3cc2O)CC1 [Example 148, 4-{[6-(5-Chloro-2-Fluorophenyl)Pyridazin-4-Yl]Amino}-7-[2-(4-Methylpiperazin-1-Yl)Ethoxy]Quinolin-6-Ol] | 
9 | < 1 nM | Cc1nnc(-c2cc(Cl)ccc2F)cc1Nc1ccnc(NC(=O)N2CCC3(CC2)CN(C)C3)c1 [Example 149, N-(4-{[6-(5-Chloro-2-Fluorophenyl)-3-Methylpyridazin-4-Yl]Amino}Pyridin-2-Yl)-2-Methyl-2,7-Diazaspiro[3.5]Nonane-7-Carboxamide] | 
10 | < 1 nM | Cc1nnc(-c2cc(Cl)ccc2F)cc1Nc1ccnc(NC(=O)N2CCC3(CCN(C)C3)CC2)c1 [Example 150, N-(4-{[6-(5-Chloro-2-Fluorophenyl)-3-Methylpyridazin-4-Yl]Amino}Pyridin-2-Yl)-2-Methyl-2,8-Diazaspiro[4.5]Decane-8-Carboxamide] | 

More lines, now with the values behind:

Row | SMILES | IC50 [1] | IC50
11 | Cc1nnc(-c2cc(Cl)ccc2F)cc1Nc1ccnc2cc(OC(=O)N3CC4CC3CN4C)ccc12 (stereo not shown) [Example 128, 4-{[6-(5-Chloro-2-Fluorophenyl)-3-Methylpyridazin-4-Yl]Amino}Quinolin-7-Yl 5-Methyl-2,5-Diazabicyclo[2.2.1]Heptane-2-Carboxylate] |  | < 1 nM
12 | Cc1nnc(-c2cc(Cl)ccc2F)cc1Nc1ccnc(NC(=O)CCN2CCN(C)C(C(=O)OC3COC3)C2)c1 (stereo not shown) [Example 129, oxetan-3-yl 4-{2-[(4-{[6-(5-chloro-2-fluorophenyl)-3-methylpyridazin-4-yl]amino}pyridin-2-yl)carbamoyl]ethyl}-1-methylpiperazine-2-carboxylate] | < 1 nM | 
13 | Cc1nnc(-c2cc(Cl)ccc2F)cc1Nc1ccnc(NC(=O)CCN2CC[S+]([O-])CC2)c1 [Example 130, N-(4-{[6-(5-Chloro-2-Fluorophenyl)-3-Methylpyridazin-4-Yl]Amino}Pyridin-2-Yl)-3-(1-Oxo-1V-Thiomorpholin-4-Yl)Propanamide] | < 1 nM | 
14 | Cc1nnc(-c2cc(Cl)ccc2F)cc1Nc1ccnc(NC(=O)CN2CCN(CC(F)(F)F)CC2)c1 [Example 131, N-(4-{[6-(5-Chloro-2-Fluorophenyl)-3-Methylpyridazin-4-Yl]Amino}Pyridin-2-Yl)-2-[14-(2,2,2-Trifluoroethyl)Piperazin-1-Yl]Acetamide] | < 1 nM | 
15 | Cc1nnc(-c2cc(Cl)ccc2F)cc1Nc1ccnc(NC(=O)CCN2CCS(=O)(=O)CC2)c1 [Example 132, N-(4-{[6-(5-Chloro-2-Fluorophenyl)-3-Methylpyridazin-4-Yl]Amino}Pyridin-2-Yl)-3-(1,1-Dioxo-11,6-Thiomorpholin-4-Yl)Propanamide] | < 1 nM | 
16 | O=C(Oc1ccc2c(Nc3cnnc(-c4cc(Cl)ccc4F)c3)ccnc2c1)N1CC(N2CCCC2)C1 [Example 133, 4-{[6-(5-Chloro-2-Fluorophenyl)Pyridazin-4-Yl]Amino}Quinolin-7-Yl 3-(Pyrrolidin-1-Yl)Azetidine-1-Carboxylate] | < 1 nM | 
17 | O=C(Oc1ccc2c(Nc3cnnc(-c4cc(Cl)ccc4F)c3)ccnc2c1)N1CCC(N2CCC2)CC1 [Example 134, 4-{[6-(5-Chloro-2-Fluorophenyl)Pyridazin-4-Yl]Amino}Quinolin-7-Yl 4-(Azetidin-1-Yl)Piperidine-1-Carboxylate] | < 1 nM | 
18 | Cc1nnc(-c2cc(Cl)ccc2F)cc1Nc1ccnc(NC(=O)CCN2CCN(C)C3(CC3)C2)c1 [Example 135, N-(4-{[6-(5-Chloro-2-Fluorophenyl)-3-Methylpyridazin-4-Yl]Amino}Pyridin-2-Yl)-3-{4-Methyl-4,7-Diazaspiro[2.5]Octan-7-Yl}Propanamide] | < 1 nM | 
19 | Cc1nnc(-c2cc(Cl)ccc2F)cc1Nc1ccnc(NC(=O)CCN2CCN(CCNS(C)(=O)=O)CC2)c1 [Example 136, N-(4-{[6-(5-Chloro-2-Fluorophenyl)-3-Methylpyridazin-4-Yl]Amino}Pyridin-2-Yl)-3-[4-(2-Methanesulfonamidoethyl)Piperazin-1-Yl]Propanamide] | < 1 nM | 
20 | CN1CC2CC1CN2C(=O)Oc1ccc2c(Nc3cnnc(-c4cc(Cl)ccc4F)c3)ccnc2c1 (stereo not shown) [Example 137, 4-{[6-(5-Chloro-2-Fluorophenyl)Pyridazin-4-Yl]Amino}Quinolin-7-Yl 5-Methyl-2,5-Diazabicyclo[2.2.1]Heptane-2-Carboxylate] | < 1 nM | 
21 | Cc1nnc(-c2cc(Cl)ccc2F)cc1Nc1ccnc(NC(=O)CCN2CC3(CN(C)C3)C2)c1 [Example 138, N-(4-{[6-(5-Chloro-2-Fluorophenyl)-3-Methylpyridazin-4-Yl]Amino}Pyridin-2-Yl)-3-{6-Methyl-2,6-Diazaspiro[3.3]Heptan-2-Yl}Propanamide] | < 1 nM | 
22 | Cc1nnc(-c2cc(Cl)ccc2F)cc1Nc1ccnc(NC(=O)CCN2CC3CC(C2)N3C)c1 [Example 146, N-(4-{[6-(5-Chloro-2-Fluorophenyl)-3-Methylpyridazin-4-Yl]Amino}Pyridin-2-Yl)-3-{6-Methyl-3,6-Diazabicyclo[3.1.1]Heptan-3-Yl}Propanamide] | < 1 nM | 
